Assay results reported in paper PMC11324046, “Second-generation piperazine derivatives as promising radiation countermeasures” (RSC Medicinal Chemistry, 2024).
“Also recorded” adds a separate entry of the source.

Legend:
mice = test system: mice; design: method as in PMID 29852368; details: 200 mg kg^−1 dose; cited from earlier work
[1] = WST-1 proliferation assay, PANC-1; assay type: cell-based; details: human, PANC-1 cells (pancreas epithelioid carcinoma), vs 0.1% DMSO control = 100%, mean ± standard deviation
Method: (§1) A thorough analysis of antiproliferative activity was performed across various cell culture types representing different histotypes: leukemia (Jurkat, MOLT-4), lung adenocarcinoma (A549), colorectal adenocarcinoma (HT-29), pancreatic carcinoma (PANC-1), breast adenocarcinoma (MCF-7), osteosarcoma (SAOS-2), and one non-cancerous cell line (fetal lung fibroblasts MRC-5). The cell lines were exposed to the newly synthesized compounds at a concentration of 100 μM for 48 h in a single-dose treatment. Changes in cell proliferation compared to the vehicle 0.1% dimethyl sulfoxide (DMSO) control were determined using the WST-1 assay, which is based on mitochondrial dehydrogenase metabolic activities. […] The overall cytotoxic activity of each compound was expressed as growth percent (GP) – the mean of the proliferation of all cell lines treated with the same compound.
(§2) Selected human tumor and non-tumor cell lines Jurkat (acute T-cell leukemia), MOLT-4 (acute lymphoblastic leukemia), A549 (lung carcinoma), HT-29 (colorectal adenocarcinoma), PANC-1 (pancreas epithelioid carcinoma), MCF-7 (breast adenocarcinoma), SAOS-2 (osteosarcoma) and MRC-5 (normal lung fibroblasts) were purchased from either American Type Culture Collection (ATCC; VA, USA) or Sigma-Aldrich (St. Louis, MO, USA) and cultured according to the provider's culture method guidelines. All cell lines were maintained at 37 °C in a humidified 5% carbon dioxide and 95% air incubator. Cells in the maximum range of either 10 passages for the adherent cell lines (A549, HT-29, PANC-1, MCF-7, SAOS-2, and MRC-5), or 20 passages for suspension cell lines (Jurkat, MOLT-4,) and in an exponential growth phase were used for this study. Screening of the antiproliferative effect and growth percent calculation were conducted as follows: each cell line was seeded at previously established optimal density (1–50 × 10^3 cells per well) in a 96-well plate (TPP, Trasadingen, Switzerland) and cells were allowed to settle overnight. Cells were treated for 48 h with compounds at a final concentration of 100 μM. At the end of the cultivation period, the WST-1 proliferation assay (Roche, Basel, Switzerland) was performed according to the manufacturer's protocol. The absorbance was measured at 440 nm using a Tecan Spark multimode microplate reader (Tecan, Mannedorf, Switzerland). Each value is the mean of three independent experiments and represents the percentage of proliferation (100% cell proliferation for 0.1% DMSO mock-treated control cells). The GP value was calculated for each compound tested. GP represents the mean of the percentage proliferation decrease of all cell lines treated with the same compound.

[2] = WST-1 proliferation assay, MCF-7; assay type: cell-based; details: human, MCF-7 cells (breast adenocarcinoma), vs 0.1% DMSO control = 100%, mean ± standard deviation
Method: as §1, §2

[3] = WST-1 proliferation assay, A549; assay type: cell-based; details: human, A549 cells (lung carcinoma), vs 0.1% DMSO control = 100%, mean ± standard deviation
Method: as §1, §2

[4] = WST-1 proliferation assay, HT-29; assay type: cell-based; details: human, HT-29 cells (colorectal adenocarcinoma), vs 0.1% DMSO control = 100%, mean ± standard deviation
Method: as §1, §2

[5] = WST-1 proliferation assay, Jurkat; assay type: cell-based; details: human, Jurkat cells (acute T-cell leukemia), vs 0.1% DMSO control = 100%, mean ± standard deviation
Method: as §1, §2

[6] = WST-1 proliferation assay, MOLT-4; assay type: cell-based; details: human, MOLT-4 cells (acute lymphoblastic leukemia), vs 0.1% DMSO control = 100%, mean ± standard deviation
Method: as §1, §2

[7] = WST-1 proliferation assay, SAOS-2; assay type: cell-based; details: human, SAOS-2 cells (osteosarcoma), vs 0.1% DMSO control = 100%, mean ± standard deviation
Method: as §1, §2

[8] = test system: panel of human cell lines; assay: Overall cytotoxicity screening across the cell line panel (growth percent); assay type: cell-based; details: 100 μM, 48 h, single-dose treatment, WST-1
Method: as §1
Selected human tumor and non-tumor cell lines Jurkat (acute T-cell leukemia), MOLT-4 (acute lymphoblastic leukemia), A549 (lung carcinoma), HT-29 (colorectal adenocarcinoma), PANC-1 (pancreas epithelioid carcinoma), MCF-7 (breast adenocarcinoma), SAOS-2 (osteosarcoma) and MRC-5 (normal lung fibroblasts) were purchased from either American Type Culture Collection (ATCC; VA, USA) or Sigma-Aldrich (St. Louis, MO, USA) and cultured according to the provider's culture method guidelines. […]

[9] = WST-1 proliferation assay, MRC-5; assay type: cell-based; details: human, MRC-5 cells (normal lung fibroblasts), vs 0.1% DMSO control = 100%, mean ± standard deviation
Method: as §1, §2

In the case of O=C1N=C(N2CCN(CCO)CC2)S/C1=C\c1ccc(-c2ccccc2)cc1 [CLZ-8], the “Survival of mice (in words)” value (mice) is listed as “significantly improved their survival”.

Compound OCCN1CCN(CC(O)COc2ccc(Oc3ccc(F)cc3)cc2)CC1 (stereo not shown) [Compound 7, 1-(4-(2-Hydroxyethyl)piperazin-1-yl)-3-(4-(4-fluorophenoxy)phenoxy)propan-2-ol] has a viability at 48 h, 100 µM [1] of 55 ± 6%, a viability at 48 h, 100 µM [2] of 7 ± 7% and a viability at 48 h, 100 µM [3] of 6 ± 2%. It also gave a viability at 48 h, 100 µM [4] of 12 ± 2%, a viability at 48 h, 100 µM [5] of 2% and a viability at 48 h, 100 µM [6] of 6 ± 5%. For the same compound, the viability at 48 h, 100 µM [7] was 15 ± 5%, the “Overall cytotoxic activity across cell lines (in words)” value [8] was “severe toxicity to most of the tested cell lines; also recorded: exhibited stand-alone cytotoxicity” and the viability at 48 h, 100 µM [9] was 0%.

With OCCN1CCN(CC(O)COc2cc(Cl)c(Cl)cc2Cl)CC1 (stereo not shown) [Compound 8, 1-(4-(2-Hydroxyethyl)piperazin-1-yl)-3-(2,4,5-trichlorophenoxy)propan-2-ol] the viability at 48 h, 100 µM [1] was 101 ± 2%, the viability at 48 h, 100 µM [2] was 41 ± 7% and the viability at 48 h, 100 µM [3] was 92 ± 12%. For the same compound, the viability at 48 h, 100 µM [4] was 33 ± 3%, the viability at 48 h, 100 µM [5] was 28 ± 4% and the viability at 48 h, 100 µM [6] was 41 ± 8%. The viability at 48 h, 100 µM [7] was 42 ± 5%, the “Overall cytotoxic activity across cell lines (in words)” value [8] was “severe toxicity to most of the tested cell lines; also recorded: exhibited stand-alone cytotoxicity” and the viability at 48 h, 100 µM [9] was 15 ± 10%.
